Drawing on ChEMBL document CHEMBL4507288 (2021), this text covers Ki and residual activity for two compounds.

Assay [1] has as its target 5-hydroxytryptamine receptor 1B (Homo sapiens, UniProt P28222). The experiment in a line: GPCRScan assay: inhibition of 5-HT1B. More on the design: radioligand conc. used [nm] 0.6 – 1.5, parental cells stable HEK.
The target of the next assay is D(3) dopamine receptor (Homo sapiens, UniProt P35462). The assay is described as follows: GPCRScan assay: inhibition of D3. Also noted: radioligand conc. used [nm] 0.5 – 1.8, parental cells HEKT.
In assay [2] the test system is Epidermal growth factor receptor (Homo sapiens), P00533 [L858R,T790M]. To be noted: Compound concentration 1000.0 nM.
Assay [3] has as its target Homeodomain-interacting protein kinase 1 (Homo sapiens) (UniProt Q86Z02). The conditions noted are these: Compound concentration 1000.0 nM.
The target of assay [4] is Mitogen-activated protein kinase 12 (Homo sapiens) (UniProt P53778). To be noted: Compound concentration 1000.0 nM.
Assay [5] addresses MAP kinase-interacting serine/threonine-protein kinase 2 (Homo sapiens) (UniProt Q9HBH9). The conditions noted are these: Compound concentration 1000.0 nM.
The target in assay [6] is Cyclin-dependent kinase 4 (Homo sapiens) (UniProt P11802). To be noted: Compound concentration 1000.0 nM.
Assay [7] deals with Ephrin type-B receptor 2 (Homo sapiens) (UniProt P29323). The conditions noted are these: Compound concentration 1000.0 nM.
The target in assay [8] is Activin receptor type-1-like (Homo sapiens) (UniProt P37023). To be noted: Compound concentration 1000.0 nM.
The target in assay [9] is Tyrosine-protein kinase ABL1 (Homo sapiens) (UniProt P00519). The conditions noted are these: Compound concentration 1000.0 nM.
The target in assay [10] is Mitogen-activated protein kinase 15 (Homo sapiens) (UniProt Q8TD08). The conditions noted are these: Compound concentration 1000.0 nM.
Assay [11] addresses Tyrosine-protein kinase SYK (Homo sapiens) (UniProt P43405). The conditions noted are these: Compound concentration 1000.0 nM.
The target in assay [12] is STE20/SPS1-related proline-alanine-rich protein kinase (Homo sapiens) (UniProt Q9UEW8). To be noted: Compound concentration 1000.0 nM.
Assay [13] concerns the target Interferon-induced, double-stranded RNA-activated protein kinase (Homo sapiens) (UniProt P19525). The conditions noted are these: Compound concentration 1000.0 nM.
In assay [14] the target is Casein kinase II subunit alpha' (Homo sapiens) (UniProt P19784). The conditions noted are these: Compound concentration 1000.0 nM.
In assay [15] the target is Rhodopsin kinase GRK1 (Homo sapiens) (UniProt Q15835). To be noted: Compound concentration 1000.0 nM.
Assay [16] has as its target Fibroblast growth factor receptor 4 (Homo sapiens) (UniProt P22455). To be noted: Compound concentration 1000.0 nM.
For assay [17], the target named is Dual serine/threonine and tyrosine protein kinase (Homo sapiens) (UniProt Q6XUX3). To be noted: Compound concentration 1000.0 nM.
Assay [18] concerns Epidermal growth factor receptor (Homo sapiens), P00533 [T790M]. To be noted: Compound concentration 1000.0 nM.
The subject of assay [19] is Leucine-rich repeat serine/threonine-protein kinase 2 (Homo sapiens), Q5S007 [G2019S]. To be noted: Compound concentration 1000.0 nM.
Assay [20] has as its target Phosphatidylinositol 3-kinase C2 domain-containing subunit gamma (Homo sapiens) (UniProt O75747). To be noted: Compound concentration 1000.0 nM.
The target of assay [21] is Uncharacterized serine/threonine-protein kinase SBK3 (Homo sapiens) (UniProt P0C264). The conditions noted are these: Compound concentration 1000.0 nM.
The test system of assay [22] is Tyrosine-protein kinase ABL1 (Homo sapiens), P00519 [T315I]. The conditions noted are these: Compound concentration 1000.0 nM.
Assay [23] relates to Tyrosine-protein kinase ABL1 (Homo sapiens), P00519 [F317L]. The conditions noted are these: Compound concentration 1000.0 nM.
Assay [24] deals with Tyrosine-protein kinase JAK1 (Homo sapiens) (UniProt P23458). The conditions noted are these: Compound concentration 1000.0 nM.
For assay [25], the target named is Serine/threonine-protein kinase N1 (Homo sapiens) (UniProt Q16512). The conditions noted are these: Compound concentration 1000.0 nM.
The target in assay [26] is Tyrosine-protein kinase receptor TYRO3 (Homo sapiens) (UniProt Q06418). To be noted: Compound concentration 1000.0 nM.
The target in assay [27] is Insulin-like growth factor 1 receptor (Homo sapiens) (UniProt P08069). To be noted: Compound concentration 1000.0 nM.
Assay [28] concerns the target Cyclin-dependent kinase 18 (Homo sapiens) (UniProt Q07002). The conditions noted are these: Compound concentration 1000.0 nM.
Assay [29] has as its system Proto-oncogene tyrosine-protein kinase receptor Ret (Homo sapiens), P07949 [M918T]. The conditions noted are these: Compound concentration 1000.0 nM.
In assay [30] the target is LIM domain kinase 2 (Homo sapiens) (UniProt P53671). The conditions noted are these: Compound concentration 1000.0 nM.
The target in assay [31] is STE20-like serine/threonine-protein kinase (Homo sapiens) (UniProt Q9H2G2). The conditions noted are these: Compound concentration 1000.0 nM.
For assay [32], the target named is Ephrin type-B receptor 4 (Homo sapiens) (UniProt P54760). The conditions noted are these: Compound concentration 1000.0 nM.
The target in assay [33] is Proto-oncogene tyrosine-protein kinase ROS (Homo sapiens) (UniProt P08922). The conditions noted are these: Compound concentration 1000.0 nM.
Assay [34] deals with Serine/threonine-protein kinase PRP4 homolog (Homo sapiens) (UniProt Q13523). To be noted: Compound concentration 1000.0 nM.
Assay [35] addresses NUAK family SNF1-like kinase 2 (Homo sapiens) (UniProt Q9H093). To be noted: Compound concentration 1000.0 nM.
Assay [36] has as its target Dual specificity protein kinase CLK2 (Homo sapiens) (UniProt P49760). To be noted: Compound concentration 1000.0 nM.
Assay [37] deals with Epidermal growth factor receptor (Homo sapiens), P00533 [G719C]. The conditions noted are these: Compound concentration 1000.0 nM.
The target in assay [38] is Microtubule-associated serine/threonine-protein kinase 1 (Homo sapiens) (UniProt Q9Y2H9). To be noted: Compound concentration 1000.0 nM.
Assay [39] has as its target Cyclin-dependent kinase-like 5 (Homo sapiens) (UniProt O76039). The conditions noted are these: Compound concentration 1000.0 nM.
The target of assay [40] is Serine/threonine-protein kinase haspin (Homo sapiens) (UniProt Q8TF76). To be noted: Compound concentration 1000.0 nM.
The target of assay [41] is Protein kinase C iota type (Homo sapiens) (UniProt P41743). To be noted: Compound concentration 1000.0 nM.
Assay [42] concerns the target Activin receptor type-2A (Homo sapiens) (UniProt P27037). The conditions noted are these: Compound concentration 1000.0 nM.
Assay [43] deals with Mitogen-activated protein kinase kinase kinase 5 (Homo sapiens) (UniProt Q99683). To be noted: Compound concentration 1000.0 nM.
Assay [44] deals with Tyrosine-protein kinase Fyn (Homo sapiens) (UniProt P06241). The conditions noted are these: Compound concentration 1000.0 nM.
The target in assay [45] is Serine/threonine-protein kinase SIK3 (Homo sapiens) (UniProt Q9Y2K2). The conditions noted are these: Compound concentration 1000.0 nM.

Molecules are shown by their SMILES.

One may read the Ki as a dissociation constant, usually derived from enzyme kinetics or from competition with a known ligand.

Mitogen-activated protein kinase 15 (Homo sapiens), sequence (Q8TD08 whole entry): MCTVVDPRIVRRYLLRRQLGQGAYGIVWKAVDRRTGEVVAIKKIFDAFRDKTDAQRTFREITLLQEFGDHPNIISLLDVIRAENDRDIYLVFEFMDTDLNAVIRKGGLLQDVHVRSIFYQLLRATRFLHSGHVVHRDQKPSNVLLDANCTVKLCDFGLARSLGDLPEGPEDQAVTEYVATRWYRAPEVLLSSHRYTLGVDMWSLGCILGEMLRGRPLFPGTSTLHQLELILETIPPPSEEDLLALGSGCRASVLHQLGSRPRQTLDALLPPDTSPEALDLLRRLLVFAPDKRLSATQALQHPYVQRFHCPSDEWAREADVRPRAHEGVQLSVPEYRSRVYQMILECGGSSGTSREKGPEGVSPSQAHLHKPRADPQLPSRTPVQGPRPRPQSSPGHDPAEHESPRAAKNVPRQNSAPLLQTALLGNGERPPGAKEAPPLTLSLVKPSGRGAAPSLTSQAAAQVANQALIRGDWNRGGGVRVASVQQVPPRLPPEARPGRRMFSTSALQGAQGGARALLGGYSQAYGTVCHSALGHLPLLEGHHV
Fibroblast growth factor receptor 4 (Homo sapiens), sequence (P22455 22-802 limits assumed): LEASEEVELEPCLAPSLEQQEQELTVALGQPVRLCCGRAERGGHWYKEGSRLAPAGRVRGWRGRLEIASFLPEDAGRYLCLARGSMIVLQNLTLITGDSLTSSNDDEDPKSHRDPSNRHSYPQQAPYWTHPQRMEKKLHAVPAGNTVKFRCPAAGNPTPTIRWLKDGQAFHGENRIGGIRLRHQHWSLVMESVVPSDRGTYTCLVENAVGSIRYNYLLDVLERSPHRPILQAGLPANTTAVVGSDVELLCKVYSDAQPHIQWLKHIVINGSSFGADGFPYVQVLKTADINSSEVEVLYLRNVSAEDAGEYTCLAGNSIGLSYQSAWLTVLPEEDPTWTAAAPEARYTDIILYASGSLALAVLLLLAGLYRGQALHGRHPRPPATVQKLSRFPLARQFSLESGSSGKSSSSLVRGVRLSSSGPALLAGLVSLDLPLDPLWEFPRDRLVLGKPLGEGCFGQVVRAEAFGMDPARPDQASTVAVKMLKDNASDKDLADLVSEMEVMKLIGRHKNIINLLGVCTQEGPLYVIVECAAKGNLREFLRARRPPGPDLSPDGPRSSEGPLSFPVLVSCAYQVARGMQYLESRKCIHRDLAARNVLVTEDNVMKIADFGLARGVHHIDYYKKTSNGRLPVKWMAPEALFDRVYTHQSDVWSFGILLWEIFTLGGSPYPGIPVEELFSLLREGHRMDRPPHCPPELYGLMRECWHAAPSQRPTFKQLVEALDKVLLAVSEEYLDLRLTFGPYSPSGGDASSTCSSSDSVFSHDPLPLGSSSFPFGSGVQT
Dual specificity protein kinase CLK2 (Homo sapiens), sequence (P49760 whole entry, looked up): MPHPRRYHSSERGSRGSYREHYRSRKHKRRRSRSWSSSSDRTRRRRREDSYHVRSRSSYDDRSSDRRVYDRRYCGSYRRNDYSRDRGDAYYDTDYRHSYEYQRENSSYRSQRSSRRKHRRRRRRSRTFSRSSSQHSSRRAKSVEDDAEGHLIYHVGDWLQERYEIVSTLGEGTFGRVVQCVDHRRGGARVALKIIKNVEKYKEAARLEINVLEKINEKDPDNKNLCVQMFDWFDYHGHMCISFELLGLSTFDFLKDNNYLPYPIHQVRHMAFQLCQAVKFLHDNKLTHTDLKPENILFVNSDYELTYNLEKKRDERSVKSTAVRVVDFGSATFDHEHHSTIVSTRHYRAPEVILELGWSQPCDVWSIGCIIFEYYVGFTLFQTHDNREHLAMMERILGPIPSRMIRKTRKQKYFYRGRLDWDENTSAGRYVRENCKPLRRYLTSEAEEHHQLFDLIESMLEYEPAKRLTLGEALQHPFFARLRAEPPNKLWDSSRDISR
Homeodomain-interacting protein kinase 1 (Homo sapiens), sequence (Q86Z02 whole entry, looked up): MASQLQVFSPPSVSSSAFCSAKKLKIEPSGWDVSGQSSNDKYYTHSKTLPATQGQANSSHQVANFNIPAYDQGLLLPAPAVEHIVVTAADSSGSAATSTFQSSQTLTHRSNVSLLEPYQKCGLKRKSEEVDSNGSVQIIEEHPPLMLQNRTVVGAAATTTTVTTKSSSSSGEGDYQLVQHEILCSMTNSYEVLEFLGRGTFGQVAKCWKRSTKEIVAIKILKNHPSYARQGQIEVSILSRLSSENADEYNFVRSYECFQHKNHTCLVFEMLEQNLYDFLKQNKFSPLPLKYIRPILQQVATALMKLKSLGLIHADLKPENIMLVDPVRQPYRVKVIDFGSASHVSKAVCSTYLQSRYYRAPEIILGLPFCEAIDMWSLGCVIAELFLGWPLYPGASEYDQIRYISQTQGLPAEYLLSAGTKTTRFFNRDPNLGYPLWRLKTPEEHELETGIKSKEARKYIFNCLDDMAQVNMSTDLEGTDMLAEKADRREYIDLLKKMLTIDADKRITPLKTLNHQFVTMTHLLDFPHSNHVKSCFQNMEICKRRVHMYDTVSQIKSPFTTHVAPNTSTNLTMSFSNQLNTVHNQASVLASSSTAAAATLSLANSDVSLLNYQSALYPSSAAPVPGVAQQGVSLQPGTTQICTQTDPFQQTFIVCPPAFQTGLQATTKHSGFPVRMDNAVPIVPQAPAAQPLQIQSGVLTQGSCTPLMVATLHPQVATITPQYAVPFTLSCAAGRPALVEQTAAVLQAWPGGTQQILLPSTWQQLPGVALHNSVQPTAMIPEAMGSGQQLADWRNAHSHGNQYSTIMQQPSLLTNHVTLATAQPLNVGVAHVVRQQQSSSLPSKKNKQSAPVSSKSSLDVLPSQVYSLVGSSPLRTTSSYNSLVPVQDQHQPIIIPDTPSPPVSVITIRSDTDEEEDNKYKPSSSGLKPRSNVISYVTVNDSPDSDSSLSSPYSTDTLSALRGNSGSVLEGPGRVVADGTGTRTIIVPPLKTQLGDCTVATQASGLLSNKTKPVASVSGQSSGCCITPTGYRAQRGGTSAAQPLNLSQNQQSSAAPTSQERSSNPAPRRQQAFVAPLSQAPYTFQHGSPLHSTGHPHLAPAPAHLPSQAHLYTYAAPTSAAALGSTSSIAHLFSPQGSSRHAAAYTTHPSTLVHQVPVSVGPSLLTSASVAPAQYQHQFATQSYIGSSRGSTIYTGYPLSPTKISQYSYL
5-hydroxytryptamine receptor 1B, sequence (P28222 whole entry): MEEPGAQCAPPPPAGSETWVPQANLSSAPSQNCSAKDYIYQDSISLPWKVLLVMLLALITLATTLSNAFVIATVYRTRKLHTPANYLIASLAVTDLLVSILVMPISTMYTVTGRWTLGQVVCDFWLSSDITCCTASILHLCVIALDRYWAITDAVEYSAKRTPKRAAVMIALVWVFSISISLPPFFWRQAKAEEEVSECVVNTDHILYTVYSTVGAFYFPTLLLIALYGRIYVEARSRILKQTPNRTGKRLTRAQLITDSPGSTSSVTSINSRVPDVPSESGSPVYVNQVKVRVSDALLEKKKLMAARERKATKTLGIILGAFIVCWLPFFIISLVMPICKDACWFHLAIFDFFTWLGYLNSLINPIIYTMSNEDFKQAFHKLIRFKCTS
LIM domain kinase 2 (Homo sapiens), sequence (P53671 whole entry, looked up, the tested form may be a part): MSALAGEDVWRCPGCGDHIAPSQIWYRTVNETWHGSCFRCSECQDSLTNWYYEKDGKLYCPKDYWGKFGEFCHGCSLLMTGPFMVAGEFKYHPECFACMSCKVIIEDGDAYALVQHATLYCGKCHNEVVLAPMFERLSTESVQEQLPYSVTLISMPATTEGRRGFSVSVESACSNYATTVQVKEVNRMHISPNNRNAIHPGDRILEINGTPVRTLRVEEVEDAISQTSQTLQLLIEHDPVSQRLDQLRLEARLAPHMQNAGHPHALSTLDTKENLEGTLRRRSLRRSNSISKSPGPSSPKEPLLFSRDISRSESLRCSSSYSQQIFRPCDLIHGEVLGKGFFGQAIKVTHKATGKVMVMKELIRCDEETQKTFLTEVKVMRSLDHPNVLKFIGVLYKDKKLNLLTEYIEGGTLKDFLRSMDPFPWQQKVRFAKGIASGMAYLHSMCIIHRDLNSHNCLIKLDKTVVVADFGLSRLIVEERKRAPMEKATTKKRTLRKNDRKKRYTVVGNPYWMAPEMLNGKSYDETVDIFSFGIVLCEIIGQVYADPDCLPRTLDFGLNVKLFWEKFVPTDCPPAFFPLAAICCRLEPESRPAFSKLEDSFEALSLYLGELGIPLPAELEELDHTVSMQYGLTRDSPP
Cyclin-dependent kinase 4 (Homo sapiens), sequence (P11802 whole entry): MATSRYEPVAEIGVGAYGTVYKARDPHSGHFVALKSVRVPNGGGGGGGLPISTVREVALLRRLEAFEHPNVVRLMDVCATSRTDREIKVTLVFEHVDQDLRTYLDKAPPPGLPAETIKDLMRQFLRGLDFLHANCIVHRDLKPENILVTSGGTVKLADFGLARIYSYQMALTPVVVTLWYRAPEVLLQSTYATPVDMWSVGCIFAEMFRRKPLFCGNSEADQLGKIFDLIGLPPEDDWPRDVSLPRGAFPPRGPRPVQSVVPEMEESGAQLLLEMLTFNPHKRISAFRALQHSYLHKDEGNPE
Protein kinase C iota type (Homo sapiens), sequence (P41743 whole entry): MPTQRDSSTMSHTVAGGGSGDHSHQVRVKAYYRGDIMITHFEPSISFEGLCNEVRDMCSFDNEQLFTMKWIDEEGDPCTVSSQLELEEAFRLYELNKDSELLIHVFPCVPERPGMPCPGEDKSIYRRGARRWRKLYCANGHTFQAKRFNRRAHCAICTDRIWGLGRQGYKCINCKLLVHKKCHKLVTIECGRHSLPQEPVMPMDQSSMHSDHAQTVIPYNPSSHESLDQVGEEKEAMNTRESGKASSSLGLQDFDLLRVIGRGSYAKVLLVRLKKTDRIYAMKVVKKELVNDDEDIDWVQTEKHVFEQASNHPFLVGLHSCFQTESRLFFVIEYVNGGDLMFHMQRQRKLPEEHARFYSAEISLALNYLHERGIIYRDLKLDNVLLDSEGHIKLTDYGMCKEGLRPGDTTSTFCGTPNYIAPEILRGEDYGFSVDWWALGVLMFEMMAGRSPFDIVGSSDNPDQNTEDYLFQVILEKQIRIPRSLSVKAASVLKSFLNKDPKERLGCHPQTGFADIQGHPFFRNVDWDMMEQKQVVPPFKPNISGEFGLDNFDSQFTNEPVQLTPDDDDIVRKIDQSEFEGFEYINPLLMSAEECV

Regarding `CC(C)(C)OC(=O)N1CCCC1CNC1CCC(c2cc(F)ccc2F)(S(=O)(=O)c2ccc(Cl)cc2)CC1` (stereo unspecified) [GSI-NC], the inhibitory constant (Ki) in assay [1] was determined as 946 nM; on D(3) dopamine receptor, 710 nM.
With `O=S(=O)(NC1CCC(c2cc(F)ccc2F)(S(=O)(=O)c2ccc(Cl)cc2)CC1)C(F)(F)F` (stereo unspecified) [MRK-560], the residual activity in assay [2] is 89%; in assay [3], 100%; in [4] it was 89%; in [5], 57%; in assay [6], 91%; in assay [7], 100%. Besides, the residual activity in assay [8] is 100%; in assay [9], 88%; in assay [10] it was 94%; in assay [11], 89%; in assay [12] it was 100%; in [13] it was 87%. The residual activity in assay [14] is 99%; in [15], 84%; in assay [16], 100%; in assay [17], 100%; in assay [18], 93%; in [19] it was 100%. Moreover, the residual activity in assay [20] was 100%; in [21] it was 93%; in [22] it was 90%; in [23], 100%; in assay [24], 100%; in assay [25] it was 100%. Moreover, the residual activity in assay [26] is 70%; in assay [27], 100%; in assay [28], 100%; in [29], 92%; in [30], 87%; in assay [31], 100%. Further, the residual activity in assay [32], in [33], in assay [34], in [35], in [36] and in assay [37] was 100% throughout. The residual activity in assay [38] was 100%; in [39], 87%; in [40], 69%; in [41] it was 100%; in assay [42] it was 63%; in assay [43], 80%. Further, the residual activity in [44] was 85%; in assay [45], 100%.
